Experimental findings from PubChem BioAssay AID210 (DTP/NCI, 2004) are described below.

The test system of the experiment is CD2F1 mice, ip Colon 26 adenocarcinoma, median survival T/C. In words: NCI In Vivo Anticancer Drug Screen. Data for tumor model Colon 26 Adenocarcinoma (intraperitoneal) in CD2F1 (CDF1) mice. The conditions noted are these: endpoint: median survival time, higher = longer survival. The procedure: The antitumor activity of compounds was measured in mice bearing transplantable tumors. Survival or tumor size were measured and the results are expressed as the measurement made in the treated group (T) divided by the measurement made in the vehicle treated control group (C). The tumor model used in this assay is Colon 26 Adenocarcinoma (intraperitoneal) in CD2F1 (CDF1) mice

Setting [1] is: dose: 64.0 mg/kg/injection, schedule: Q04DX003 (ip), vehicle: Klucel (hydroxypropylcellulose) (HPC).
The mark [2] stands for this setting: dose: 6.25 mg/kg/injection, schedule: Q04DX003 (ip), vehicle: Klucel (hydroxypropylcellulose) (HPC).
[3] abbreviates: dose: 12.5 mg/kg/injection, schedule: Q04DX003 (ip), vehicle: Klucel (hydroxypropylcellulose) (HPC).
[4] abbreviates: dose: 50.0 mg/kg/injection, schedule: Q04DX003 (ip), vehicle: Klucel (hydroxypropylcellulose) (HPC).
Where [5] appears, read: dose: 25.0 mg/kg/injection, schedule: Q04DX003 (ip), vehicle: saline.
Setting [6] is: dose: 50.0 mg/kg/injection, schedule: Q04DX003 (ip), vehicle: saline.

“And” between values parts separate entries of the source, which are not always exact repeats. Equal entries are not always repeated. Inconclusive results and toxic doses are left out.

As for `CC(C)NCC(O)COc1cccc2ccccc12` (stereo not given), the T/C was 109 % of control (dose: 4.0 mg/kg/injection, schedule: Q04DX003 (ip), vehicle: Klucel (hydroxypropylcellulose) (HPC)); 102 % of control (dose: 8.0 mg/kg/injection, schedule: Q04DX003 (ip), vehicle: Klucel (hydroxypropylcellulose) (HPC)); 107 % of control (dose: 16.0 mg/kg/injection, schedule: Q04DX003 (ip), vehicle: Klucel (hydroxypropylcellulose) (HPC)); 101 % of control (dose: 32.0 mg/kg/injection, schedule: Q04DX003 (ip), vehicle: Klucel (hydroxypropylcellulose) (HPC)); 107 % of control under setting [1].
On to `COc1cccc2c1C(=O)c1c(O)c3c(c(O)c1C2=O)C[C@@](O)(/C(C)=N\NC(=O)CO)C[C@@H]3OC1CC(N)C(O)C(C)O1` (stereo not given in full), for which the T/C by setting is: (dose: 4.5 mg/kg/injection, schedule: Q07DX003 (iv), vehicle: other) 104 % of control; (dose: 7.0 mg/kg/injection, schedule: Q07DX003 (iv), vehicle: other) 101 % of control; (dose: 11.0 mg/kg/injection, schedule: Q07DX003 (iv), vehicle: other) 108 % of control; (dose: 17.0 mg/kg/injection, schedule: Q07DX003 (iv), vehicle: other) 104 % of control.
In the case of `S=c1nc[nH]c2nc[nH]c12`, the T/C under setting [2] was 115 % of control; the T/C under setting [3] is 110 % of control; the T/C under setting [4] is 191 % of control and 252 % of control; the T/C (dose: 100.0 mg/kg/injection, schedule: Q04DX003 (ip), vehicle: Klucel (hydroxypropylcellulose) (HPC)) is 171 % of control; the T/C (dose: 200.0 mg/kg/injection, schedule: Q04DX003 (ip), vehicle: Klucel (hydroxypropylcellulose) (HPC)) is 86 % of control.
Turning to `COc1cccc2c1C(=O)c1c(O)c3c(c(O)c1C2=O)CC(O)(C(=O)CO)CC3OC1CC(N)C(O)C(C)O1` (stereo not given), the T/C (dose: 1.13 mg/kg/injection, schedule: Q04DX003 (ip), vehicle: water) is 107 % of control; the T/C (dose: 2.25 mg/kg/injection, schedule: Q04DX003 (ip), vehicle: water) is 99 % of control and 113 % of control; the T/C (dose: 4.5 mg/kg/injection, schedule: Q04DX003 (ip), vehicle: water) was 113 % of control; the T/C (dose: 9.0 mg/kg/injection, schedule: Q04DX003 (ip), vehicle: water) is 116 % of control and 117 % of control; the T/C (dose: 18.0 mg/kg/injection, schedule: Q04DX003 (ip), vehicle: water) was 117 % of control; the T/C (dose: 36.0 mg/kg/injection, schedule: Q04DX003 (ip), vehicle: water) was 111 % of control. The T/C (dose: 55.0 mg/kg/injection, schedule: Q07DX002 (iv), vehicle: saline) was 107 % of control; the T/C (dose: 74.0 mg/kg/injection, schedule: Q07DX002 (iv), vehicle: saline) was 112 % of control; the T/C (dose: 190.0 mg/kg/injection, schedule: Q07DX002 (iv), vehicle: saline) was 124 % of control.
Take `COC(=O)Nc1cccc(-c2nc3ccc(NC(=O)OC)cc3c(=O)n2-c2ccccc2)c1`: under setting [1], the T/C is 171 % of control.
Consider `NCCNc1ccc(NCCN)c2c1C(=O)c1ccccc1C2=O`, for which the T/C was 171 % of control (dose: 1.5 mg/kg/injection, schedule: Q01DX009 (ip), vehicle: acid diluted with saline); 164 % of control (dose: 2.0 mg/kg/injection, schedule: Q01DX009 (ip), vehicle: acid diluted with saline); 263 % of control (dose: 3.0 mg/kg/injection, schedule: Q01DX009 (ip), vehicle: acid diluted with saline); 175 % of control (dose: 4.0 mg/kg/injection, schedule: Q01DX009 (ip), vehicle: acid diluted with saline); 254 % of control (dose: 6.0 mg/kg/injection, schedule: Q01DX009 (ip), vehicle: acid diluted with saline); 213 % of control (dose: 8.0 mg/kg/injection, schedule: Q01DX009 (ip), vehicle: acid diluted with saline). For the same compound, the T/C is 214 % of control (dose: 12.0 mg/kg/injection, schedule: Q01DX009 (ip), vehicle: acid diluted with saline) and 227 % of control (dose: 16.0 mg/kg/injection, schedule: Q01DX009 (ip), vehicle: acid diluted with saline).
As to `CCCCCCCCCCCCCCCCS(=O)CC(O)COC(=O)c1ccc(C(=O)OCC(O)CS(=O)CCCCCCCCCCCCCCCC)cc1` (stereo not given), the T/C (dose: 12.5 mg/kg/injection, schedule: Q04DX002 (ip), vehicle: saline + alcohol) is 109 % of control; the T/C (dose: 25.0 mg/kg/injection, schedule: Q04DX002 (ip), vehicle: saline + alcohol) was 100 % of control; the T/C (dose: 50.0 mg/kg/injection, schedule: Q04DX002 (ip), vehicle: saline + alcohol) was 91 % of control; the T/C (dose: 100.0 mg/kg/injection, schedule: Q04DX002 (ip), vehicle: saline + alcohol) was 91 % of control.
In the case of `O=c1n(CC2CO2)c(=O)n(CC2CO2)c(=O)n1CC1CO1` (stereo not given), the T/C was 237 % of control under setting [5]; 292 % of control (dose: 40.0 mg/kg/injection, schedule: Q04DX003 (ip), vehicle: saline); 237 % of control and 292 % of control under setting [6]; 292 % of control (dose: 60.0 mg/kg/injection, schedule: Q04DX003 (ip), vehicle: saline); 193 % of control and 237 % of control (dose: 100.0 mg/kg/injection, schedule: Q04DX003 (ip), vehicle: saline); 237 % of control and 292 % of control (dose: 200.0 mg/kg/injection, schedule: Q04DX003 (ip), vehicle: saline). The T/C (dose: 300.0 mg/kg/injection, schedule: Q04DX003 (ip), vehicle: saline) was 292 % of control; the T/C (dose: 400.0 mg/kg/injection, schedule: Q04DX003 (ip), vehicle: saline) was 213 % of control and 292 % of control.
With `O=C(CCCN1CCC(O)(c2cccc(C(F)(F)F)c2)CC1)c1ccc(F)cc1`, the T/C (dose: 3.12 mg/kg/injection, schedule: Q04DX003 (ip), vehicle: Klucel (hydroxypropylcellulose) (HPC)) was 94 % of control; the T/C under setting [2] is 95 % of control; the T/C under setting [3] was 99 % of control; the T/C (dose: 25.0 mg/kg/injection, schedule: Q04DX003 (ip), vehicle: Klucel (hydroxypropylcellulose) (HPC)) is 97 % of control; the T/C under setting [4] was 105 % of control.
For `C1OC1CN1CCN(CC2CO2)CC1` (stereo not given), the T/C reads like this: (dose: 3.12 mg/kg/injection, schedule: Q04DX003 (ip), vehicle: saline) 112 % of control and 98 % of control; (dose: 6.25 mg/kg/injection, schedule: Q04DX003 (ip), vehicle: saline) 108 % of control and 120 % of control; under setting [5], 167 % of control; under setting [6], 175 % of control and 193 % of control.
For the compound `CSc1cc(=O)n2c3ccccc3c3ccnc1c32`, the T/C (dose: 2.5 mg/kg/injection, schedule: Q04DX003 (ip), vehicle: saline with Tween-80) is 100 % of control; the T/C (dose: 5.0 mg/kg/injection, schedule: Q04DX003 (ip), vehicle: saline with Tween-80) was 115 % of control; the T/C (dose: 20.0 mg/kg/injection, schedule: Q04DX003 (ip), vehicle: saline with Tween-80) was 151 % of control.
For the compound `Cc1cnc(/C=N\NC(N)=S)c2cccc(N)c12`, the T/C reads like this: (dose: 25.0 mg/kg/injection, schedule: Q04DX003 (iv), vehicle: other) 110 % of control; (dose: 42.0 mg/kg/injection, schedule: Q04DX003 (iv), vehicle: other) 103 % of control; (dose: 68.0 mg/kg/injection, schedule: Q04DX003 (iv), vehicle: other) 108 % of control.
For `C=C(NC(=O)C(=C)NC(=O)c1csc(C2=NC3c4csc(n4)C4NC(=O)c5csc(n5)C(C(C)(O)C(C)O)NC(=O)C5CSC(=N5)/C(=C/C)NC(=O)C(C(C)O)NC(=O)c5csc(n5)C3(CC2)NC(=O)C(C)NC(=O)C(=C)NC(=O)C(C)NC(=O)C(C(C)CC)NC2C=Cc3c(C(C)O)cc(nc3C2O)C(=O)OC4C)n1)C(N)=O` (stereo not given), the T/C was 120 % of control (dose: 5.0 mg/kg/injection, schedule: Q04DX003 (ip), vehicle: Klucel (hydroxypropylcellulose) (HPC)); 90 % of control (dose: 10.0 mg/kg/injection, schedule: Q04DX003 (ip), vehicle: Klucel (hydroxypropylcellulose) (HPC)); 100 % of control (dose: 20.0 mg/kg/injection, schedule: Q04DX003 (ip), vehicle: Klucel (hydroxypropylcellulose) (HPC)); 110 % of control (dose: 40.0 mg/kg/injection, schedule: Q04DX003 (ip), vehicle: Klucel (hydroxypropylcellulose) (HPC)); 102 % of control (dose: 80.0 mg/kg/injection, schedule: Q04DX003 (ip), vehicle: Klucel (hydroxypropylcellulose) (HPC)); 92 % of control (dose: 160.0 mg/kg/injection, schedule: Q04DX003 (ip), vehicle: Klucel (hydroxypropylcellulose) (HPC)).
